Test [1] concerns HeLa cervical adenocarcinoma. Put plainly: Inhibition of cell proliferation (14C-thymidine incorporation), HeLa. It is filed as cell-based. The protocol:
(§1) The ability of a test compound to inhibit the proliferation of cell growth was determined by measuring incorporation of ^14C-labelled thymidine into newly synthesized DNA within the cells. This method was used on American Type Culture Collection (ATCC, Virginia) cell lines derived from carcinomas originating from several tissues such as HeLa cervical adenocarcinoma (ATCC Cat. #CCL-2), A375 malignant melanoma (ATCC Cat. #CRL-1619) and HCT-116 colon carcinoma (ATCC Cat. #CCL-247).
(§2) The carcinoma cells were trypsinized and counted. The cells (3000-8000 count) were added to each well of a 96-well CytoStar tissue culture treated scintillating microplate (Amersham #RPNQ0160) in complete medium (100 μL) and the plate was incubated in complete medium for 24 hrs at 37° C. in an […] containing 5% CO2.
Test compound (1 μL) in 100% DMSO was added to the plate test-wells with DMSO only added to control-wells. The plate is incubated in complete medium for a second 24 hr period at 37° C. in an atmosphere containing 5% CO2.
An aliquot of a solution of Methyl ^14C-thymidine (56 mCi/mmol) (NEN #NEC568 or Amersham #CFA532) in complete medium (20 uL to provide […]) was also added to each well and the plate was incubated for a third 24 hr period at 37° C. in an atmosphere containing 5% CO2.
The plate contents were discarded and the plate was washed twice with PBS (200 μL), then PBS (200 μL) was added to each well. The plate was sealed and the degree of methyl ^14C-thymidine incorporation is quantified on a Packard Top Count.
An IC50 value shown as >10 or >100 means that 50% inhibition was not observed at the highest concentration.
For orientation: Incorporation of labelled thymidine or its analogues reports DNA synthesis.

Another test addresses T1, CDK1:Cyclin-B (Homo sapiens, UniProt P06493).
T1 construct: purchased New England Biolabs, Beverly, Mass; 6020; host or cells: insect cells
The experiment in a line: CDK1 Screening Assay. The test is classed as biochemical. As to conditions: 10 μM ATP, biotinylated histone-H1 peptide substrate, 33P-γ-ATP FlashPlate; read-out: Kinase IC50 CDK1. As for the experimental part:
(§3) A kinase reaction mixture was prepared containing 50 mM Tris.HCl pH=8, 10 mM MgCl2, 0.1 mM Na3PO4, 1 mM DTT, 10 μM ATP, 0.025 μM biotinylated histone-H1 peptide substrate and 0.2 μCuries per well ^33P-γ-ATP (2000-3000 Ci/mmol). 70 μL of the kinase reaction mixture was dispensed into the well of a streptavidin coated FlashPlate™ (Cat. # SMP103, NEN, Boston, Mass.). Then 1 μL of test compound stock in 100% DMSO was added to the wells resulting in a final concentration of 1% DMSO in the reaction well with a 100 μL final reaction well volume.
(§4) The CDK1:Cyclin-B protein was diluted in 50 mM Tris.HCl pH=8.0, 0.1% BSA at a concentration of 1 ng per μL and 30 μL (30 ng enzyme per test well) was added to each well to initiate the reaction. The reaction was incubated for one hour at 30° C. At the end of the one hour incubation, the reaction was terminated by aspirating the mixture from the plate and washing the wells twice with PBS containing 100 mM EDTA. The histone-H1 biotinylated peptide substrate became immobilized on the Flashplate™ and the incorporation of ^33P-γ-ATP was measured by reading the plate on a scintillation counter. Inhibition of the enzymatic activity of CDK1 was measured by observing a reduced amount of ^33P-γ-ATP incorporated into the immobilized peptide.
The CDK1 kinase used was isolated from insect cells expressing both the human CDK1 catalytic subunit and its positive regulatory subunit cyclin B (New England Biolabs, Beverly, Mass., Cat. # 6020).
(§5) An IC50 listed as >0.1, >1, >10 or >100 means no observed 50% inhibition at the indicated test concentration. […] ND means the compound was not tested in the assay specified.

Another test concerns the target VEGF-R2 kinase domain (Rattus norvegicus, UniProt O08775). Put plainly: VEGF-R2 Screening Assay. The test is classed as biochemical. The conditions noted are these: 10 μM ATP, biotinylated PLC1 peptide substrate, 33P-γ-ATP FlashPlate; read-out: Kinase IC50 VEGFR. The protocol: A kinase reaction mixture was prepared containing 50 mM Tris.HCl pH=8, 10 mM MgCl2, 0.1 mM Na3PO4, 1 mM DTT, 10 μM ATP, 0.025 μM biotinylated peptide substrate and 0.8 μCuries per well ^33P-γ-ATP (2000-3000 Ci/mmol). 70 μL of the kinase reaction mixture was dispensed into the well of a streptavidin coated FlashPlate™ (Cat. # SMP103, NEN, Boston, Mass.). Then 1 μL of test compound stock in 100% DMSO was added to the wells resulting in a final concentration of 1% DMSO in the reaction well with a 100 μL final reaction well volume.
The soluble rat tyrosine kinase containing an N-terminal 6×HIS tag was diluted in 50 mM Tris.HCl pH=8.0, 0.1% BSA at a concentration of 5 ng per μL and 30 μL (150 ng enzyme per test well) was added to each well to initiate the reaction. The reaction was incubated for one hour at 30° C. At the end of the one hour incubation, the reaction was terminated by aspirating the reaction mixture from the plate and washing the wells twice with PBS containing 100 mM EDTA. The PLC1 biotinylated peptide substrate became immobilized on the Flashplate™ and the incorporation of ^33P-γ-ATP was measured by reading the plate on a scintillation counter. Inhibition of the enzymatic activity of the VEGF-R was measured by observing a reduced amount of ^33P-γ-ATP incorporated into the immobilized peptide.
The VEGF-R kinase assay was carried out using the CDK kinase assay procedure except that the enzyme was replaced with the VEGF-R2 fusion protein containing a polyhistidine tag at the N-terminus followed by amino acids 786-1343 of the rat VEGF-R2 kinase domain (GenBank Accession #U93306).
as §5

The target of the next test is T2, CDK2:Cyclin A (Homo sapiens, UniProt P24941).
T2 construct: purchased Upstate Biotech, Lake Placid, N.Y
Put plainly: CDK2 Screening Assay. The test is classed as biochemical. As to conditions: 10 μM ATP, biotinylated histone-H1 peptide substrate, 33P-γ-ATP FlashPlate; read-out: Kinase IC50 CDK2. As for the experimental part:
as §3
as §4, with “CDK2:Cyclin A” for “CDK1:Cyclin-B”, “CDK2” for “CDK1”
The CDK2 kinase used was complexed with cyclin A and is commercially available (Upstate Biotech, Lake Placid, N.Y.).
as §5

The test system of the next test is HCT-116 colon carcinoma. Put plainly: Inhibition of cell proliferation (14C-thymidine incorporation), HCT116. The test is classed as cell-based. As to conditions: Homo sapiens, HCT116, 14C-thymidine incorporation. As for the experimental part: as §1, §2
(§6) Test compound (1 μL) in 100% DMSO was added to the plate test-wells with DMSO only added to control-wells. The plate is incubated in complete medium for a second 24 hr period at 37° C. in an atmosphere containing 5% CO2. […]
(§7) The plate contents were discarded and the plate was washed twice with PBS (200 μL), then PBS (200 μL) was added to each well. The plate was sealed and the degree of methyl ^14C-thymidine incorporation is quantified on a Packard Top Count. […]

Another test concerns A375 malignant melanoma. The experiment in a line: Inhibition of cell proliferation (14C-thymidine incorporation), A375. It is filed as cell-based. As to conditions: Homo sapiens, A-375; A375, 14C-thymidine incorporation. As for the experimental part:
as §1, §2, §6, §7

Like-named read-outs stand apart in the source and are kept apart here. Where only a bound is given, the exact number is not on record here.

The term IC50 denotes the midpoint of a concentration-inhibition curve.

T1 sequence (P06493 whole entry): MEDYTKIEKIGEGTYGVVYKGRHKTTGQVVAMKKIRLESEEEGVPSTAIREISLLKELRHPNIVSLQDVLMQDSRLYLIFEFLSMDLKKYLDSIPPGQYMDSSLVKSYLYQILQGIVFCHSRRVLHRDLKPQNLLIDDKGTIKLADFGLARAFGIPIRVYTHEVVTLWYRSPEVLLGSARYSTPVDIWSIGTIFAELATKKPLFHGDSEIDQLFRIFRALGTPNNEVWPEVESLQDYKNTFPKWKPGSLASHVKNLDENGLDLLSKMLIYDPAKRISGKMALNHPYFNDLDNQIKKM
T1 sequence (P14635 whole entry partner): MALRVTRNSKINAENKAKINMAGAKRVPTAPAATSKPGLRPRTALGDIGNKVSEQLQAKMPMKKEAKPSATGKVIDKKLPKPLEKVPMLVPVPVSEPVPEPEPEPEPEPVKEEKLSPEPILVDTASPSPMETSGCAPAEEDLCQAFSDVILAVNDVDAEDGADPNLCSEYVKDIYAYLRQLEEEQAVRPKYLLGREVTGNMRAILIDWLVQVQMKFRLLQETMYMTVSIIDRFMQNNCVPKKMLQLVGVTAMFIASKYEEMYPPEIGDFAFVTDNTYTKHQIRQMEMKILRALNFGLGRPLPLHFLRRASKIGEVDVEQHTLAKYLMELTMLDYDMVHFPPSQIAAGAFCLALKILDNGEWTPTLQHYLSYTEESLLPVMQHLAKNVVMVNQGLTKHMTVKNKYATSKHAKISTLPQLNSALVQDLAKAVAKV
Sequence of VEGF-R2 kinase domain (O08775 786-1343): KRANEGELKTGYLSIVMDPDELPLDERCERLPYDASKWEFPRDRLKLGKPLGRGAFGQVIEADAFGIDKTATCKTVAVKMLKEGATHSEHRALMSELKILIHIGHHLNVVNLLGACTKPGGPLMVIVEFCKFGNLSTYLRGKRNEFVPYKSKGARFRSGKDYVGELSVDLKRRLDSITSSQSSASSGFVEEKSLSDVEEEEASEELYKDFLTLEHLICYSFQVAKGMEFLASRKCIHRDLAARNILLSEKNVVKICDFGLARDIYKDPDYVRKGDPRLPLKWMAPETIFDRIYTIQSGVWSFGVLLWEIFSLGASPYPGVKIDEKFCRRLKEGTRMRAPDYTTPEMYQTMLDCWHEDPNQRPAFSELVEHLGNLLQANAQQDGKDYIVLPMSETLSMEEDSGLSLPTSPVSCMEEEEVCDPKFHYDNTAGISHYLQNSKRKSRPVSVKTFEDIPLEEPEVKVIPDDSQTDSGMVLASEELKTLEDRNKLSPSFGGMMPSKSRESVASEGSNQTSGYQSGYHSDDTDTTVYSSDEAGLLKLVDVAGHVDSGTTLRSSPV

Turning to “1-(2,6-difluoro-phenyl)-3-(2-phenylamino-benzothiazol-7-yl)-urea [Cpd 1]”, the IC50 in test [1] is above 10 µM; on CDK1:Cyclin-B it was above 100 µM; at VEGF-R2 kinase domain, around 100 µM; at CDK2:Cyclin A, above 100 µM.

In the case of `O=C(Nc1ccc2nc(Nc3ccccc3)sc2c1)Nc1c(F)cccc1F` [Cpd 2, 1-(2,6-difluoro-phenyl)-3-(2-phenylamino-benzothiazol-6-yl)-urea], the IC50 (in test [1] (Homo sapiens); at CDK1:Cyclin-B; on VEGF-R2 kinase domain; at CDK2:Cyclin A) was above 100 µM each time.

With `O=C(Nc1ccccc1)Nc1cccc2nc(Nc3ccccc3)sc12` [Cpd 3, 1-phenyl-3-(2-phenylamino-benzothiazol-7-yl)-urea], the IC50 was above 10 µM in test [1] (Homo sapiens), above 100 µM at CDK1:Cyclin-B, above 100 µM at VEGF-R2 kinase domain and above 100 µM on CDK2:Cyclin A.

For the compound `O=C(Nc1ccc(Cl)c(Cl)c1)Nc1cccc2nc(Nc3ccccc3)sc12` [Cpd 4, 1-(3,4-dichloro-phenyl)-3-(2-phenylamino-benzothiazol-7-yl)-urea], the half-inhibitory concentration (IC50) in test [1] (Homo sapiens) was above 10 µM; at CDK1:Cyclin-B it was above 100 µM; on VEGF-R2 kinase domain it was above 100 µM; at CDK2:Cyclin A, above 100 µM.

As for `O=C(Nc1ccccc1)Nc1cccc2sc(Nc3ccccc3)nc12` [Cpd 5, 1-phenyl-3-(2-phenylamino-benzothiazol-4-yl)-urea], the IC50 is above 10 µM in test [1] (Homo sapiens), above 100 µM at CDK1:Cyclin-B, above 100 µM at VEGF-R2 kinase domain and above 100 µM at CDK2:Cyclin A.

Turning to `O=C(Nc1c(F)cccc1F)Nc1cccc2sc(Nc3ccccc3)nc12` [Cpd 6, 1-(2,6-difluoro-phenyl)-3-(2-phenylamino-benzothiazol-4-yl)-urea], the IC50 in test [1] (Homo sapiens) was 72.7 µM; at CDK1:Cyclin-B, above 100 µM; at VEGF-R2 kinase domain, above 100 µM; at CDK2:Cyclin A, 5.76 µM.

`Cc1ccc(F)c(C(=O)Nc2cccc3sc(Nc4ccccc4)nc23)c1F` [Cpd 48, 2,6-difluoro-3-methyl-N-(2-phenylamino-benzothiazol-4-yl)-benzamide]: the half-maximal inhibitory concentration (IC50) in test [1] (Homo sapiens) was 20.6 µM; on CDK1:Cyclin-B, 1.55 µM; with HCT-116 colon carcinoma it was 5.04 µM; at VEGF-R2 kinase domain, 4.58 µM; at CDK2:Cyclin A, 0.156 µM; in the test with A375 malignant melanoma, 10.4 µM.

On to `O=C(CCc1ccccc1)Nc1cccc2sc(Nc3ccccc3)nc12` [Cpd 54, 3-phenyl-N-(2-phenylamino-benzothiazol-4-yl)-propionamide], for which the IC50 at CDK1:Cyclin-B, at VEGF-R2 kinase domain and at CDK2:Cyclin A was above 100 µM each time.

Take `O=C(Nc1cccc2sc(Nc3ccccc3)nc12)C1CCCCCC1` [Cpd 55, cycloheptanecarboxylic acid (2-phenylamino-benzothiazol-4-yl)-amide]: the concentration for half-maximal inhibition (IC50) on CDK1:Cyclin-B, on VEGF-R2 kinase domain and at CDK2:Cyclin A was above 100 µM throughout.

As to `Cc1nnsc1C(=O)Nc1cccc2sc(Nc3ccccc3)nc12` [Cpd 56, 4-methyl-[1,2,3]thiadiazole-5-carboxylic acid (2-phenylamino-benzothiazol-4-yl)-amide], the IC50 was above 100 µM at CDK1:Cyclin-B, above 100 µM at VEGF-R2 kinase domain and above 10 µM on CDK2:Cyclin A.

Regarding `CC(C)(C)C(=O)Nc1cccc2sc(Nc3ccccc3)nc12` [Cpd 57, 2,2-dimethyl-N-(2-phenylamino-benzothiazol-4-yl)-propionamide], the IC50 is above 100 µM at CDK1:Cyclin-B, above 100 µM at VEGF-R2 kinase domain and 13.3 µM on CDK2:Cyclin A.

For `O=C(CC1CCCCC1)Nc1cccc2sc(Nc3ccccc3)nc12` [Cpd 58, 2-cyclohexyl-N-(2-phenylamino-benzothiazol-4-yl)-acetamide], the IC50 at CDK1:Cyclin-B, at VEGF-R2 kinase domain and at CDK2:Cyclin A was above 100 µM throughout.

In the case of `O=C(Nc1cccc2sc(Nc3ccccc3)nc12)c1cc2c(Cl)cc(Cl)cc2[nH]1` [Cpd 59, 4,6-dichloro-1H-indole-2-carboxylic acid (2-phenylamino-benzothiazol-4-yl)-amide], the IC50 on CDK1:Cyclin-B, at VEGF-R2 kinase domain and at CDK2:Cyclin A was above 100 µM in each case.

For the compound `CC(C)(C)NC(=O)Nc1cccc2sc(Nc3ccccc3)nc12` [Cpd 60, 1-tert-butyl-3-(2-phenylamino-benzothiazol-4-yl)-urea], the IC50 on CDK1:Cyclin-B, on VEGF-R2 kinase domain and at CDK2:Cyclin A was above 100 µM in each case.

On to `O=C(Nc1cccc2sc(Nc3ccccc3)nc12)NC1CCCCC1` [Cpd 61, 1-cyclohexyl-3-(2-phenylamino-benzothiazol-4-yl)-urea], for which the IC50 at CDK1:Cyclin-B, on VEGF-R2 kinase domain and at CDK2:Cyclin A was above 100 µM each time.

Turning to `Cc1ccc(F)c(C(=O)N(C)c2cccc3sc(Nc4ccccc4)nc23)c1F` [Cpd 62, 2,6-difluoro-3,N-dimethyl-N-(2-phenylamino-benzothiazol-4-yl)-benzamide], the IC50 at CDK1:Cyclin-B, on VEGF-R2 kinase domain and on CDK2:Cyclin A was above 100 µM each time.
